Measured values reported in patent publication US11389449B2, “Treatment of metabolic syndrome with an sGC stimulator” (Cyclerion Therapeutics, Inc., priority 2017, dated 2022).

Test system: ZSF1 obese rats
Experiment: Fasting serum insulin in ZSF1 rats (Rat Insulin ELISA)
Type: in vivo
Excerpt: Blood and 24-hour urine samples were obtained from all animals at day 0 (15 weeks of age; prior to the initiation of enalapril treatment). Animals in Groups 3, 7, 8 and 9 were placed on drinking water containing enalapril and kept on Purina 5008 rodent chow (C13000). Animals in Group 1, 2, 4, 5 and 6 were kept on Purina 5008 rodent chow and drinking water. Ten days after the initiation of enalapril treatment, blood and 24-hour urine samples were collected from all animals. After day 10 blood and urine collections, animals in Groups 4, 5 and 6 received Compound I at 1, 3 and 10 mg/kg/day, respectively for 11 weeks. In addition to enalapril treatment, animals in Groups 7, 8 and 9 received Compound I at 1, 3 and 10 mg/kg/day, respectively for an additional 11 weeks.
10 weeks after the initiation of Compound I treatment, animals (27 weeks of age) were fasted for 18 hours. Serum samples were collected for the measurement of fasting insulin levels. Serum insulin levels were determined using the Rat Insulin ELISA kit (Cat #ELR-Insulin, RayBiotech, Inc.)
The data are expressed as mean±SEM. […] One-tailed tests were used for comparison of variables. Statistical significance is indicated by P values less than 0.05.

OC(CNc1nc(-c2cc(-c3ccon3)n(Cc3ccccc3F)n2)ncc1F)(C(F)(F)F)C(F)(F)F [Compound I]
Fasting Insulin (week 10, Compound I 1 mpk): 15.7 ± 3.5 μIU/mL | Fasting Insulin (week 10, Compound I 3 mpk): 15.6 ± 2.7 μIU/mL | Fasting Insulin (week 10, Compound I 10 mpk): 11.7 ± 1.6 μIU/mL
